Laboratory results published in US7179920B2, “3-thia-4-arylquinolin-2-one derivatives” (Bristol-Myers Squibb Company, priority 2003, dated 2007).

Assays:
[1] = tested on: rat small intestine tissue; test: Rat small intestine (ileum) strips: inhibition of nifedipine-sensitive force; details: integral of nifedipine-sensitive force, 30 min post-compound
Excerpt: The ability of the compounds of the invention to relax rat small intestine tissue as a model for the treatment of irritable bowel syndrome is described as follows. Male rats (Harlan, Sprague Dawley, 250–350 g) were sacrificed by decapitation. A portion of small intestine (ileum) was removed and the attached connective tissues and intestinal contents removed. The ileum was cut into segments of ≦1 cm in length. The segments were mounted longitudinally between fixed hooks in organ baths containing warm (37° C.) physiological salt solution (composition in mM: NaCl 118.4, KCl 4.7, KH2PO4 1.2, MgSO4 1.2, CaCl2 1.8, Glucose 10.1, NaHCO3 25; gassed with 95% O2/5% CO2, pH 7.4). A stable tension of ˜1.5 g was maintained in the tissue segments during the equilibration period of 45 minutes. Changes in muscle tension were measured with isometric force transducers (Grass, FT-03C) and recorded using AcqKnowledge data acquisition system (AcqKnowledge for MP100WS, Biopac Systems Inc., Goleta, Calif.). Compound or vehicle was added in the baths for 30 minutes. “Zero” active force was established at the end of the experiment using nifedipine (20 μM). The effects of compounds or vehicle on force was determined by measuring the integral of nifedipine-sensitive force (including resting tone and spontaneous contractions) pre- and 30 min post-compound (or vehicle) addition. Results are expressed as the percentage inhibition of force. DMSO vehicle inhibited force (integral) by −0.6±3.0% (n=25).

[2] = tested on: cloned mammalian (mSlo or hSlo) BK (Maxi-K) channel; test: Assay for BK channel openers: two-electrode voltage clamp of BK-mediated outward current in Xenopus oocytes; type: cell-based; details: voltage step to +140 mV
Excerpt: The experimental media (modified Barth's solution) consisted of millimolar (“mM”): NaCl (88), NaHCO3 (2.4), KCl (1.0), HEPES (10), MgSO4 (0.82), Ca(NO3)2 (0.33), CaCl2 (0.41); pH 7.5.

[3] = tested on: rabbit corpus cavernosum tissue; test: Rabbit corpus cavernosum strips: relaxation of phenylephrine-induced force; details: Oryctolagus cuniculus; inhibition of phenylephrine (3 μM)-induced force as compared to vehicle control; read-out: % Inhibition of force (RCC strips)
Procedure: The ability of the compounds of the invention to relax rabbit corpus cavernosum tissue as a model for the treatment of erectile dysfunction is described as follows. New Zealand white rabbits (3.4–3.7 kg) were euthanized by sodium pentobarbital (100 mg/kg) overdose. The penis from each animal was rapidly removed and immersed in a cold oxygenated modified Krebs Henseleit bicarbonate buffer. The penis' outer tunica was removed and the corpus cavernosum smooth muscle obtained and cut into strips approximately 3–5 mm long. The strips were suspended in tissue baths containing physiological salt solution (see above), and allowed to equilibrate for at least one hour under resting tension of 1.0 gram. Isometric force was measured as described above. Tissue strips were stimulated with the α-agonist phenylephrine (3 μM) and allowed to reach a steady level of force prior to the addition of test compounds. The results are expressed as the percentage inhibition of phenylephrine-induced force as compared to vehicle control.

[4] = at 20 μM, percent increase over BK current in controls
[5] = at 1 μM, percent increase over BK current in controls

| Structure (SMILES) | melting point | % MaxiK opening [2, 4] | inhibition [3] | also measured |
| --- | --- | --- | --- | --- |
| O=c1[nH]c2ccc(C(F)(F)F)cc2c(-c2cc(Cl)ccc2O)c1SCC(O)CO (racemic) [Example 17, (±)-4-(5-Chloro-2-hydroxyphenyl)-3-(2,3-dihydroxypropylsulfanyl)-6-trifluoromethyl-1H-quinolin-2-one] | 178 to 180 °C | 246% | 31% | % Inhibition of force (RSI strips) [1]: 6% |
| COc1ccc(Cl)cc1-c1c(SCC(=O)O)c(=O)[nH]c2ccc(C(F)(F)F)cc12 [Example 1] | 235 °C | 155% | 14% |  |
| CCNC(=O)NCCSc1c(-c2cc(Cl)ccc2OC)c2cc(C(F)(F)F)ccc2[nH]c1=O [Example 3, 1-{2-[4-(5-Chloro-2-methoxy-phenyl)-2-oxo-6-trifluoromethyl-1,2-dihydro-quinolin-3-ylsulfanyl]-ethyl}-3-ethyl-urea] |  | 123% |  | % Inhibition of force (RSI strips) [1]: 17b % |
| COc1ccc(Cl)cc1-c1c(SCCNC(N)=O)c(=O)[nH]c2ccc(C(F)(F)F)cc12 [Example 4, 1-{2-[4-(5-Chloro-2-methoxy-phenyl)-2-oxo-6-trifluoromethyl-1,2-dihydro-quinolin-3-ylsulfanyl]-ethyl}urea] |  | 140% |  |  |
| NC(=O)NCCSc1c(-c2cc(Cl)ccc2O)c2cc(C(F)(F)F)ccc2[nH]c1=O [Example 5, 1-{2-[4-(5-Chloro-2-hydroxy-phenyl)-2-oxo-6-trifluoromethyl-1,2-dihydro-quinolin-3-ylsulfanyl]-ethyl}urea] |  | 165% | 65% | % Inhibition of force (RSI strips) [1]: 21% |
| CNC(=O)NCCSc1c(-c2cc(Cl)ccc2O)c2cc(C(F)(F)F)ccc2[nH]c1=O [Example 6, 1-{2-[4-(5-Chloro-2-hydroxy-phenyl)-2-oxo-6-trifluoromethyl-1,2-dihydro-quinolin-3-ylsulfanyl]-ethyl}-3-methyl-urea] |  | 176% |  |  |
| CCNC(=O)NCCSc1c(-c2cc(Cl)ccc2O)c2cc(C(F)(F)F)ccc2[nH]c1=O [Example 7, 1-{2-[4-(5-Chloro-2-hydroxy-phenyl)-2-oxo-6-trifluoromethyl-1,2-dihydro-quinolin-3-ylsulfanyl]-ethyl}-3-ethyl-urea] |  |  |  | % MaxiK opening ([2]; marked ⋄⋄ (concentration footnote not given)): 160^⋄⋄ % |
| O=c1[nH]c2ccc(C(F)(F)F)cc2c(-c2cc(Cl)ccc2O)c1S [Example 8, 4-(5-Chloro-2-hydroxyphenyl)-3-mercapto-6-trifluoromethyl-1H-quinolin-2-one] |  | 197% |  |  |
| COc1ccc(Cl)cc1-c1c(S)c(=O)[nH]c2ccc(C(F)(F)F)cc12 [Example 9, 4-(5-Chloro-2-methoxyphenyl)-3-mercapto-6-trifluoromethyl-1H-quinolin-2-one] | 239 to 241 °C |  |  | % MaxiK opening [2, 5]: 149^⋄ % |
| O=c1[nH]c2ccc(C(F)(F)F)cc2c(-c2cc(Cl)ccc2O)c1SCCO [Example 10, 4-(5-Chloro-2-hydroxyphenyl)-3-(2-hydroxyethylsulfanyl)-6-trifluoromethyl-1H-quinolin-2-one] | 278 to 279 °C | 348% | 43% |  |
| N#CCCSc1c(-c2cc(Cl)ccc2O)c2cc(C(F)(F)F)ccc2[nH]c1=O [Example 11, 3-[4-(5-Chloro-2-hydroxyphenyl)-2-oxo-6-trifluoromethyl-1,2-dihydro-quinolin-3-ylsulfanyl]propionitrile] | 140 °C | 189% |  |  |
| COCCSc1c(-c2cc(Cl)ccc2O)c2cc(C(F)(F)F)ccc2[nH]c1=O [Example 12, 4-(5-Chloro-2-hydroxyphenyl)-3-(2-methoxyethylsulfanyl)-6-trifluoromethyl-1H-quinolin-2-one] |  |  |  | % MaxiK opening [2, 5]: 208^⋄ % |
| N#CCCCSc1c(-c2cc(Cl)ccc2O)c2cc(C(F)(F)F)ccc2[nH]c1=O [Example 13, 4-[4-(5-Chloro-2-hydroxyphenyl)-2-oxo-6-trifluoromethyl-1,2-dihydro-quinolin-3-ylsulfanyl]butyronitrile] | 217 °C | 198% |  |  |
| O=c1[nH]c2ccc(C(F)(F)F)cc2c(-c2cc(Cl)ccc2O)c1SCCCO [Example 14, 4-(5-Chloro-2-hydroxyphenyl)-3-(3-hydroxypropylsulfanyl)-6-trifluoromethyl-1H-quinolin-2-one] | 178 to 180 °C | 242% | 23% |  |
| COc1ccc(Cl)cc1-c1c(SCCCO)c(=O)[nH]c2ccc(C(F)(F)F)cc12 [Example 15, 4-(5-Chloro-2-methoxyphenyl)-3-(3-hydroxypropylsulfanyl)-6-trifluoromethyl-1H-quinolin-2-one] | 211 °C | 140% |  |  |
| COc1ccc(Cl)cc1-c1c(SCCO)c(=O)[nH]c2ccc(C(F)(F)F)cc12 [Example 16, 4-(5-Chloro-2-methoxyphenyl)-3-(2-hydroxyethylsulfanyl)-6-trifluoromethyl-1H-quinolin-2-one] | 98 to 100 °C | 149% |  |  |
| O=c1[nH]c2ccc(C(F)(F)F)cc2c(-c2cc(Cl)ccc2O)c1SC[C@@H](O)CO [Example 18, (S)-4-(5-Chloro-2-hydroxyphenyl)-3-(2,3-dihydroxypropylsulfanyl)-6-trifluoromethyl-1H-quinolin-2-one] |  | 223% | 45% |  |
| O=c1[nH]c2ccc(C(F)(F)F)cc2c(-c2cc(Cl)ccc2O)c1SC[C@H](O)CO [Example 19, (R)-4-(5-Chloro-2-hydroxyphenyl)-3-(2,3-dihydroxypropylsulfanyl)-6-trifluoromethyl-1H-quinolin-2-one] |  | 256% | 41% |  |
| COc1ccc(Cl)cc1-c1c(SCC(O)CO)c(=O)[nH]c2ccc(C(F)(F)F)cc12 (centres unmarked) [Example 20, 4-(5-Chloro-2-methoxyphenyl)-3-(2,3-dihydroxypropylsulfanyl)-6-trifluoromethyl-1H-quinolin-2-one] | 110 to 114 °C | 178% |  |  |
| COc1ccc(Cl)cc1-c1c(S/C=C/CO)c(=O)[nH]c2ccc(C(F)(F)F)cc12 [Example 21] | 148 to 150 °C |  |  | % MaxiK opening [2, 5]: 135^⋄ % |
